1 substance from patent US20080045499A1, “Preferential Inhibition of Presenilin-1” (Elan Pharmaceuticals, Inc., priority 2006, published 2008) can be followed below.

One experiment concerns PS2/1C. Description: Inhibition of chimeric presenilin PS2/1C. The experiment is classed as cell-based, human. To be noted: chimeric PS1/PS2 molecule, FIG. 11. An excerpt: Human PS1, PS2, and APPsw cDNA inserts were subcloned into pCF vector, which was modified with pcDNA3 (Invitrogen, CA, USA) by inserting the adenoviral tripartite leader sequence (Berkner et al, (1987) J. Virol. April; 61(4): 1213-20. Abundant expression of polyomavirus middle T antigen and dihydrofolate reductase in an adenovirus recombinant) 38 bp upstream of the starting ATG codon, between the CMV promoter and the EcoR1 site. Construction of presenilin chimeras was PCR-based. For making chimeras that contain PS1backbone and a PS2 fragment, we first generated a large PCR fragment that contained the entire pCF vector plus all PS1 sequence to be retained, and a small PCR fragment that only contained the PS2 fragment to be used in the final chimera. The two PCR fragments were then ligated in a blunt-end fashion by Rapid DNA ligation kit (Roche, Ind., USA). We used pfu Turbo DNA polymerase kit (Strategene, Calif., USA) for all PCR reactions. To avoid potential mutations introduced by PCR, we first sequenced the entire insert in both strands. […] For making chimeras that contained PS2 backbone and a PS1 fragment, we first generated a large PCR fragment that contained the entire pCF vector plus all PS2 sequence to be retained, and a small PCR fragment that only contained the PS1 fragment to be used in the final chimera. All other cloning procedures were the same as described above. […]

Experiment [1] has as its system Presenilin-1-comprised γ-secretase relative to Presenilin-2-comprised γ-secretase. Description: PS1/PS2 selectivity: ratio of EC50 in Presenilin-2 and Presenilin-1 transfected cells. It is filed as cell-based, human. To be noted: mean values from 2 independent experiments (FIG. 11). An excerpt: EC50 values were derived by curve fitting of Aβ1-x levels, for samples treated with various concentrations of gamma secretase inhibitors, with XLfit software program (IDBS, Alameda, Calif., USA). Differences in EC50 values obtained for Presenilin-1 transfected cells and Presenilin-2 transfected cells exposed to a test compound served as an indicator of differential inhibition.
Cell culture medium is then removed from the transfected cell lines and analyzed for Aβ1-x levels by ELISA assay, as described in Example 1. ELISA assays are performed using ELISA plates coated with the mAb 266 to capture Aβ peptides and then by detecting Aβ peptides with biotinylated mAb 3D6. EC50 values are derived for all of the test compounds. Differences in EC50 values obtained for Presenilin-1 transfected cells and Presenilin-2 transfected cells exposed to a test compound serve as an indicator of differential inhibition.
For example, several tested compounds are sulfonamide compounds, while several are non-sulfonamide compounds. The ratio of the EC50 value obtained for Presenilin-2 transfected cells and Presenilin-1 transfected cells (indicated in the last column of Table I) indicates the degree to which the test compound is capable of preferentially inhibiting Presenilin-1. […] In Table 2, the values shown in columns A, B and C are EC50 values (nM). Where inhibition was very low, EC50 values were not generated by the program; thus EC50 values are not provided. Rather, percent of inhibition was estimated based on the inhibition curve generated by the program. Percentages indicate percentage inhibition at a compound concentration of 10 uM. […]

As for BMS299897 [reference compound], the “inhibitor potencies against PS2/1C compared with PS1” value with PS2/1C is listed as “behaved just like PS1”. Further, the “fold more selective for PS1” value in experiment [1] is given as around 35 fold.
